Experimental data: patent US12077503B2, “Substituted cyclic amides and their use as herbicides” (FMC CORPORATION, priority 2015, dated 2024)

Tests used:
Assay type in all cases: in vivo
[1] = system: sedge, umbrella (small-flower umbrella sedge, Cyperus difformis); assay: Test B flooded paddy test; settings: Cyperus difformis, 250 g ai/ha, Flood; 0 to 100 scale where 0 is no effect and 100 is complete control; read-out: Sedge, Umbrella plant response rating
Summary of the method: (§1)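 Evaluation by eye, against controls, occurred 13–15 d post-treatment in a greenhouse, using a 0 (no effect) to 100 (complete control) scale. Application was into the paddy water, 3 cm deep over the soil, on 2-leaf plants.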

[2] = system: ducksalad (Heteranthera limosa); assay: Test B flooded paddy test; settings: Heteranthera limosa, 250 g ai/ha, Flood; 0 to 100 scale where 0 is no effect and 100 is complete control; read-out: Ducksalad plant response rating
Summary of the method: as §1

[3] = system: barnyardgrass (Echinochloa crus-galli); assay: Test B flooded paddy test; settings: Echinochloa crus-galli, 250 g ai/ha, Flood; 0 to 100 scale where 0 is no effect and 100 is complete control; read-out: Barnyardgrass plant response rating
Summary of the method: as §1

[4] = system: rice (Oryra sativa); assay: Test B flooded paddy test; settings: Oryza sativa, 250 g ai/ha, Flood; 0 to 100 scale where 0 is no effect and 100 is complete control; read-out: Rice plant response rating
Summary of the method: as §1

[5] = system: barnyardgrass (Echinochloa crus-galli); assay: Test A preemergence; settings: Echinochloa crus-galli, pre-emergence, 240 h, 0 to 100 scale where 0 is no effect and 100 is complete control, read-out: Barnyardgrass plant response rating; for pest or weed control at 31 g/ha: 31 g ai/ha, Preemergence; for pest or weed control at 125 g/ha: 125 g ai/ha, preemergence, approx. 10 d
Summary of the method: (§2)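 Seeds sprayed preemergence with a directed soil spray, or plants at 2 to 10 cm height and one- to two-leaf stage sprayed postemergence, with test chemicals in a non-phytotoxic solvent mixture containing surfactant, in loam soil–sand blend. Injury rated visually against untreated controls after about 10 d in greenhouse, 0 (no effect) to 100 (complete control).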

[6] = system: ryegrass, Italian (Italian ryegrass, Lolium multiflorum); assay: Test A preemergence; settings: Lolium multiflorum, pre-emergence, 240 h, 0 to 100 scale where 0 is no effect and 100 is complete control, read-out: Ryegrass, Italian plant response rating; for pest or weed control at 31 g/ha: 31 g ai/ha, Preemergence; for pest or weed control at 125 g/ha: 125 g ai/ha, preemergence, approx. 10 d
Summary of the method: as §2

[7] = system: giant foxtail (Setaria faberii); assay: Test A preemergence; settings: Setaria faberi, pre-emergence, 240 h, 0 to 100 scale where 0 is no effect and 100 is complete control, read-out: Foxtail, Giant plant response rating; for pest or weed control at 31 g/ha: 31 g ai/ha, Preemergence; for pest or weed control at 125 g/ha: 125 g ai/ha, preemergence, approx. 10 d
Summary of the method: as §2

[8] = system: ragweed (common ragweed, Ambrosia elatior); assay: Test A preemergence; settings: Ambrosia artemisiifolia, pre-emergence, 240 h, 0 to 100 scale where 0 is no effect and 100 is complete control, read-out: Ragweed plant response rating; for pest or weed control at 31 g/ha: 31 g ai/ha, Preemergence; for pest or weed control at 125 g/ha: 125 g ai/ha, preemergence, approx. 10 d
Summary of the method: as §2

[9] = system: pigweed (Amaranthus retroflexus); assay: Test A preemergence; settings: Amaranthus retroflexus, pre-emergence, 240 h, 0 to 100 scale where 0 is no effect and 100 is complete control, read-out: Pigweed plant response rating; for pest or weed control at 31 g/ha: 31 g ai/ha, Preemergence; for pest or weed control at 125 g/ha: 125 g ai/ha, preemergence, approx. 10 d
[10] = system: Kochia (Kochia scoparia); assay: Test A preemergence; settings: Bassia scoparia, pre-emergence, 240 h, 0 to 100 scale where 0 is no effect and 100 is complete control, read-out: Kochia plant response rating; for pest or weed control at 31 g/ha: 31 g ai/ha, Preemergence; for pest or weed control at 125 g/ha: 125 g ai/ha, preemergence, approx. 10 d
Summary of the method: as §2

[11] = system: barnyardgrass (Echinochloa crus-galli); assay: Test A postemergence; settings: Echinochloa crus-galli, post-emergence, 240 h; for pest or weed control at 125 g/ha: 125 g ai/ha, postemergence, visual injury vs untreated controls after approx. 10 d, 0 = no effect, 100 = complete control, read-out: Barnyardgrass plant response rating (0 to 100 scale); for pest or weed control at 31 g/ha: Postemergence, 31 g ai/ha, visual injury after approx. 10 d, 0 to 100 scale, 0 no effect, 100 complete control, read-out: Plant response rating, Barnyardgrass
Summary of the method: as §2

[12] = system: ryegrass, Italian (Italian ryegrass, Lolium multiflorum); assay: Test A postemergence; settings: Lolium multiflorum, post-emergence, 240 h, 125 g ai/ha, postemergence, visual injury vs untreated controls after approx. 10 d; 0 = no effect, 100 = complete control; read-out: Ryegrass, Italian plant response rating (0 to 100 scale)
Summary of the method: as §2

[13] = system: wheat (Triticum aestivum); assay: Test A postemergence; settings: Triticum aestivum, post-emergence, 240 h, 125 g ai/ha, postemergence, visual injury vs untreated controls after approx. 10 d; 0 = no effect, 100 = complete control; read-out: Wheat plant response rating (0 to 100 scale)
Summary of the method: as §2

[14] = system: corn (Zea mays); assay: Test A postemergence; settings: Zea mays, post-emergence, 240 h; for plant injury at 125 g/ha: 125 g ai/ha, postemergence, visual injury vs untreated controls after approx. 10 d, 0 = no effect, 100 = complete control, read-out: Corn plant response rating (0 to 100 scale); for Corn plant response rating (crop injury, 0 = no effect, 100 = complete kill) at 31 g/ha: Postemergence, 31 g ai/ha, visual injury after approx. 10 d, 0 to 100 scale, 100 complete control
Summary of the method: as §2

[15] = system: giant foxtail (Setaria faberii); assay: Test A postemergence; settings: Setaria faberi, post-emergence, 240 h; for pest or weed control at 125 g/ha: 125 g ai/ha, postemergence, visual injury vs untreated controls after approx. 10 d, 0 = no effect, 100 = complete control, read-out: Foxtail, Giant plant response rating (0 to 100 scale); for pest or weed control at 31 g/ha: Postemergence, 31 g ai/ha, visual injury after approx. 10 d, 0 to 100 scale, 0 no effect, 100 complete control, read-out: Plant response rating, Foxtail, Giant
Summary of the method: as §2

[16] = system: ragweed (common ragweed, Ambrosia elatior); assay: Test A postemergence; settings: Ambrosia artemisiifolia, post-emergence, 240 h, 125 g ai/ha, postemergence, visual injury vs untreated controls after approx. 10 d; 0 = no effect, 100 = complete control; read-out: Ragweed plant response rating (0 to 100 scale)
Summary of the method: as §2

[17] = system: pigweed (Amaranthus retroflexus); assay: Test A postemergence; settings: Amaranthus retroflexus, post-emergence, 240 h, 125 g ai/ha, postemergence, visual injury vs untreated controls after approx. 10 d; 0 = no effect, 100 = complete control; read-out: Pigweed plant response rating (0 to 100 scale)
Summary of the method: as §2

[18] = system: Kochia (Kochia scoparia); assay: Test A postemergence; settings: Bassia scoparia, post-emergence, 240 h; for pest or weed control at 125 g/ha: 125 g ai/ha, postemergence, visual injury vs untreated controls after approx. 10 d, 0 = no effect, 100 = complete control, read-out: Kochia plant response rating (0 to 100 scale); for pest or weed control at 31 g/ha: Postemergence, 31 g ai/ha, visual injury after approx. 10 d, 0 to 100 scale, 0 no effect, 100 complete control, read-out: Plant response rating, Kochia
Summary of the method: as §2

[19] = system: Galium (catchweed bedstraw, Galium aparine); assay: Test A postemergence; settings: Galium, post-emergence, 240 h; for pest or weed control at 125 g/ha: 125 g ai/ha, postemergence, visual injury vs untreated controls after approx. 10 d, 0 = no effect, 100 = complete control, read-out: Galium plant response rating (0 to 100 scale); for pest or weed control at 31 g/ha: Postemergence, 31 g ai/ha, visual injury after approx. 10 d, 0 to 100 scale, 0 no effect, 100 complete control, read-out: Plant response rating, Galium
Summary of the method: as §2

[20] = system: blackgrass (Alopecurus myosuroides); assay: Test A postemergence; settings: Alopecurus myosuroides, post-emergence, 240 h; for pest or weed control at 125 g/ha: 125 g ai/ha, postemergence, visual injury vs untreated controls after approx. 10 d, 0 = no effect, 100 = complete control, read-out: Blackgrass plant response rating (0 to 100 scale); for pest or weed control at 31 g/ha: Postemergence, 31 g ai/ha, visual injury after approx. 10 d, 0 to 100 scale, 0 no effect, 100 complete control, read-out: Plant response rating, Blackgrass
Summary of the method: as §2

Compound	pest or weed control at 250 g/ha [1]	pest or weed control at 250 g/ha [2]	pest or weed control at 250 g/ha [3]	pest or weed control at 250 g/ha [4]	pest or weed control at 31 g/ha [5]	pest or weed control at 125 g/ha [5]	pest or weed control at 31 g/ha [6]	pest or weed control at 125 g/ha [6]	pest or weed control at 31 g/ha [7]	pest or weed control at 125 g/ha [7]	pest or weed control at 31 g/ha [8]	pest or weed control at 125 g/ha [8]	pest or weed control at 31 g/ha [9]	pest or weed control at 125 g/ha [9]	pest or weed control at 31 g/ha [10]	pest or weed control at 125 g/ha [10]	pest or weed control at 125 g/ha [11]	pest or weed control at 31 g/ha [11]	pest or weed control at 125 g/ha [12]	plant injury at 125 g/ha [13]	also measured
CN1C[C@H](c2ccc([Si](C)(C)C)cc2)[C@@H](C(=O)Nc2cccc(F)c2F)C1=O [Compound 1168]	0%	0%	40%	30%	0%	0%	0%	0%	0%	30%	0%	0%	0%	0%	0%	0%	0%	0%	0%	20%	plant injury at 125 g/ha [14]: 0%; Corn plant response rating (crop injury, 0 = no effect, 100 = complete kill) at 31 g/ha [14]: 0%; pest or weed control at 125 g/ha [15]: 20%; pest or weed control at 31 g/ha [15]: 0%; pest or weed control at 125 g/ha [16]: 0%; pest or weed control at 125 g/ha [17]: 0%; pest or weed control at 125 g/ha [18]: 0%; pest or weed control at 31 g/ha [18]: 0%; pest or weed control at 125 g/ha [19]: 30%; pest or weed control at 31 g/ha [19]: 0%; pest or weed control at 125 g/ha [20]: 0%; pest or weed control at 31 g/ha [20]: 0%
CON1CC[C@H](c2cccc(C(F)(F)F)c2)[C@@H](C(=O)Nc2cccc(F)c2F)C1=O [Compound 1169]	0%	0%	0%	0%	70%	90%	0%	0%	70%	90%	0%	0%	0%	0%	30%	30%	80%	30%	0%	0%	plant injury at 125 g/ha [14]: 0%; Corn plant response rating (crop injury, 0 = no effect, 100 = complete kill) at 31 g/ha [14]: 0%; pest or weed control at 125 g/ha [15]: 70%; pest or weed control at 31 g/ha [15]: 30%; pest or weed control at 125 g/ha [16]: 0%; pest or weed control at 125 g/ha [17]: 0%; pest or weed control at 125 g/ha [18]: 20%; pest or weed control at 31 g/ha [18]: 0%; pest or weed control at 125 g/ha [19]: 0%; pest or weed control at 31 g/ha [19]: 0%; pest or weed control at 125 g/ha [20]: 0%; pest or weed control at 31 g/ha [20]: 0%
